Assay results from US8835415B2, “Standardized composition, method of manufacture and use in the resolution of RNA virus infection” (priority 2009, dated 2014).
pEC50: −log10 of the molar value.

Tests used:
[1] = system: HIV-1 (X4 tropic virus); assay: microbe, parasite or virus in culture; format: cell-based; settings: CXCR4 trophic virus, PBMC
[2] = system: HIV-1 (R5 tropic virus); format: cell-based; settings: CCR5 trophic virus, PBMC
[3] = system: Sheep Red Blood Cells (SRBCs); format: in vivo, Swiss albino mice; settings: Cyclophosphamide 25 mg/kg p.o alone
Experimental: Swiss albino mice of either sex were divided into 5 groups with six animals per group based on the treatment they received.
On Day 0, all five groups were sensitized with Sheep Red Blood Cells (SRBCs) containing 1×10^8 cells in normal saline. […] On Day 7, blood samples were collected from each mouse in the five groups by retro orbital puncture for the determination of primary antibody titre. Subsequently on day 7, after the blood withdrawal, the mice were challenged with 0.1 ml of SRBCs into the foot pad. On Day 14, blood samples were collected from each mouse by retro orbital puncture for the determination of secondary antibody titre.

[4] = system: H1N1 virus, Sensitive strain (676); assay: Plaque reduction assay in MDCK cells, H1N1 sensitive strain; format: cell-based; settings: Influenza A virus, Tamiflu

c1cc(CN2CCCNCCNCCCNCC2)ccc1CN1CCCNCCNCCCNCC1 [AMD3100]
pEC50 ([1]; Human immunodeficiency virus 1): 8.69
inhibitory activity (in words) [2]: only against CXCR4 trophic virus

Cc1cn([C@H]2C[C@H](N=[N+]=[N-])[C@@H](CO)O2)c(=O)[nH]c1=O [AZT]
inhibitory activity (in words) [1]: exhibited inhibitory activity
inhibitory activity (in words) [2]: exhibited inhibitory activity

O=P1(N(CCCl)CCCl)NCCCO1 (stereo not drawn) [Cyclophosphamide]
PRIMARY HA TITRE ON DAY 7 [3]: 0.33
SECONDARY HA TITRE ON DAY 14 [3]: 6.67

Cc1ccc(-c2ccc3c(c2)C=C(C(=O)Nc2ccc(C[N+](C)(C)C4CCOCC4)cc2)CCC3)cc1.[Cl-] [Tak-779]
inhibitory activity (in words) [1]: only against CCR5 trophic virus
pEC50 [2]: 9.25

CCOC(=O)C1=C[C@@H](OC(CC)CC)[C@H](NC(C)=O)[C@@H](N)C1 [Tamiflu, Oseltamivir]
pEC50 [4]: 8.35
